This note sets out measurements from the METLIN SMRT retention time set (Domingo-Almenara et al. 2019).

This data set can be described thus: gradient 5% acetonitrile 3 min, to 50% in 2 min, to 85% in 15 min, held 3 min, 100 µL/min. To be noted: column: Zorbax Extend-C18 2.1 x 50 mm; eluents: water / acetonitrile, 0.1% formic acid. A digest of the protocol:
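Pure standards were run in mixtures of ~100 molecules by HPLC coupled to a quadrupole time-of-flight mass spectrometer. The column was a Zorbax Extend-C18 (2.1 × 50 mm, 1.8 μm) at 100 μL/min, with water and acetonitrile each containing 0.1% formic acid, in positive and negative ionization mode. Dead and dwell volumes were 40 μL and 900 μL. Retention time was taken from computationally picked adduct peaks, each manually inspected, with data collected over 3 months.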
For the compound `O=C(C1=NN(Cc2ccc(F)cc2)c2ccc(Cl)cc2S1(=O)=O)N1CCOCC1`, the RP-LC retention time was found to be 873 s.
The compound `O=C(NC1CC1)c1nc(Nc2ccc(F)cc2)c2ccccc2n1` gave an RP-LC retention time of 712 s.
As for `CN(C)C(=O)c1ccc2c(c1)N(CC(=O)N1CCN(c3ccccc3)CC1)C(=O)CO2`, the RP-LC retention time was determined as 689 s.
Consider `CC(C)C(NC(=O)Cc1ccccc1F)C(=O)Nc1nc2ccccc2[nH]1` (stereo unspecified), for which the RP-LC retention time turned out to be 692 s.
In turn, `CN(CC(O)COc1ccc2c(c1)OCO2)C1CCCCC1` (stereo unspecified) registered an RP-LC retention time of 567 s.
To `O=C(C1=NN(Cc2ccc(F)cc2)c2ccccc2S1(=O)=O)N1CCOCC1` belongs 761 s; to `O=C(CCCn1c(=O)c2cccn2c2ccc(F)cc21)NCCN1CCCCCC1`, 635 s.
In the case of `Cc1nnc(-n2cccc2)s1`, the RP-LC retention time is 733 s.
As for `CN(C)S(=O)(=O)N1CCCC(c2nc(-c3cccnc3)no2)CCNC(=O)CC1` (stereo unspecified), the RP-LC retention time was 641 s.
`CNC(=O)c1cc(N2CCN(C)CC2)nc2c(C)cccc12` registered an RP-LC retention time of 601 s.
On to `Cc1ccc(C(=O)Nc2ccc(N3CCN(c4ccccc4)C3=O)nc2)cc1C`, for which the RP-LC retention time amounted to 1070 s.
For `NC(=O)[C@@H]1CCCN1C(=O)[C@H](Cc1ccccc1)NC(=O)[C@@H]1CCCN1C(=O)[C@@H](N)Cc1ccc(O)cc1`, the RP-LC retention time is 584 s.
To `O=C(Nc1ccc(Cl)cc1)c1c(O)c2cccnc2n(Cc2ccccc2)c1=O` belongs 1290 s.
Consider `CCOCCCNC(=O)C1CCN(S(=O)(=O)c2ccc3c(c2)CCCC(=O)N3)CC1`, for which the RP-LC retention time came to 656 s.
`O=C(c1ccccc1Cl)N1CCN(c2cnn3c(C4CC4)nnc3c2)CC1` had an RP-LC retention time of 590 s.
To `CN(CC1CCOC1)C(=O)c1ccccc1Cl` (stereo unspecified) belongs 681 s.
Turning to `COc1cc2c(cc1OC)[N+]([O-])=C(c1ccccc1)C2=O`, the RP-LC retention time came to 1030 s.
`CC(=O)Oc1ccc2cc(-c3ccccc3)c(=O)oc2c1` registered an RP-LC retention time of 1000 s.
On to `O=C(NC1CCCCCC1)C1CCN(C(=O)C2Sc3ccccc3NC2=O)CC1` (stereo unspecified), for which the RP-LC retention time came to 613 s.
Regarding `O=C1CCCc2cc(S(=O)(=O)N3CCC(C(=O)NCc4cccs4)CC3)ccc2N1`, the RP-LC retention time was 695 s.
Turning to `COCCN1CCn2cc(S(=O)(=O)Nc3ccc(C#N)cc3)cc2C1=O`, the RP-LC retention time turned out to be 671 s.
`COc1ccc(-c2cn3ccn(-c4ccc(F)cc4)c(=O)c3n2)cc1` returned an RP-LC retention time of 776 s.
Regarding `CCN1C(=O)c2cccnc2Sc2cc(CNC(=O)c3cccc(C#N)c3)ccc21`, the RP-LC retention time was 756 s.
`CSc1ccc(-c2nc3cnccn3c2Nc2cccc(C(=O)NCC3CCCO3)c2)cc1` (stereo unspecified) had an RP-LC retention time of 748 s.
`COc1ccc(NC(=O)Cc2c(C)nn(-c3nc(-c4ccccc4)cs3)c2C)c(OC)c1` showed an RP-LC retention time of 1160 s.
For the compound `Fc1ccc2[nH]c(CN3CCN(c4ccccn4)CC3)cc2c1`, the RP-LC retention time was found to be 649 s.
For `CCN1CCN(C(=O)C2CCCN(S(=O)(=O)c3ccc(OC)c(OC)c3)C2)CC1` (stereo unspecified), the RP-LC retention time stood at 593 s.
Turning to `CC(C)c1ccc(-c2cc3c4nn(CC(=O)NCc5ccco5)c(=O)n4ccn3n2)cc1`, the RP-LC retention time is 946 s.
`CCOc1ccc(CNC(=O)C2CCCN(C(=O)c3[nH]c(C)c(C(=O)OC)c3C)C2)cc1` (stereo unspecified): the RP-LC retention time was determined as 751 s.
In turn, `COc1ccc(C(=O)Nc2cccn3nc(C)nc23)cc1` returned an RP-LC retention time of 719 s.
`COCC1(O)CCOC2(CCN(Cc3cccc(F)c3F)CC2)C1` (stereo unspecified) came in with an RP-LC retention time of 589 s.
For the compound `O=C(CCc1c(-c2ccc(F)cc2)nc2ccccn12)Nc1cccc(Br)c1`, the RP-LC retention time is 730 s.
The compound `Cc1cccc(CN2C[C@@H]3C(=O)N(C)C(=O)[C@@H]3C2)c1` had an RP-LC retention time of 583 s.
In the case of `O=C(CC(F)(F)F)N1CCC(c2noc(-c3ccccc3)n2)C1` (stereo unspecified) it was 870 s; in that of `Cc1cccc(Nc2nc(-c3ccc(C(C)C)cc3)cs2)n1`, 1130 s; in that of `CNC(=O)c1cc(=O)[nH]c2c(C)cccc12`, 588 s.
`Cc1ccc(Nc2ncccc2S(N)(=O)=O)cc1F` came in with an RP-LC retention time of 863 s.
To `Cc1ccc(-c2noc(-c3nc(-c4ccncc4)no3)n2)cc1` belongs 1090 s; to `COc1ccc(CNC(=O)C2(C)CCN(C(=O)Nc3ccccc3C(F)(F)F)CC2)cc1`, 834 s; to `COCc1nc(-c2ccc(OC3CN(Cc4cccs4)C3)cc2)no1`, 661 s.
Consider `COC(=O)c1c(NCc2ccc3c(c2)OCO3)c2cccc(Cl)c2[nH]c1=O`, for which the RP-LC retention time came out at 788 s.
Regarding `CC1(C(=O)NC2CCCCC2)CN(S(=O)(=O)c2ccccc2)CC(=O)N1c1cccc(F)c1` (stereo unspecified), the RP-LC retention time was 940 s.
In the case of `CCn1c(=O)c2ccnn2c2ccc(C(=O)O)cc21`, the RP-LC retention time is 662 s.
As to `CCC(=O)N1CCc2sc(S(=O)(=O)N3CCN(c4ccc(OC)cc4)CC3)cc2C1`, the RP-LC retention time is 886 s.
For the compound `Cc1ccnc(NC(=O)C2CCCN(S(=O)(=O)c3c[nH]c(C(=O)N4CCCC4)c3)C2)c1` (stereo unspecified), the RP-LC retention time came to 614 s.
To `Cn1cnc2c(C(=O)N3CCc4ccccc4C3)nn(-c3ccccc3)c2c1=O` belongs 831 s; to `COc1ccc(C(=O)NCc2ccccc2OC(F)(F)F)nn1`, 840 s; to `Cc1cc(C)n(-c2ccc(C(=O)Nc3ccc(O)cc3)cn2)n1`, 738 s.
In turn, `CCOC(=O)c1c(C)[nH]c(C)c1S(=O)(=O)N1CCC(C(=O)NC2CCCC2)CC1` gave an RP-LC retention time of 735 s.
Compound `Cc1ccc(C(=O)NCCc2c[nH]c3ccc(F)cc23)cc1` showed an RP-LC retention time of 841 s.
In turn, `O=C(CCc1c[nH]c2ccccc12)N1CCN2CCS(=O)(=O)N(C3CC3)C(=O)C2C1` (stereo unspecified) registered an RP-LC retention time of 766 s.
For the compound `O=C(COc1ccc(Cl)cc1)Nc1ccc(-c2nnc3n2CCCC3)cc1`, the RP-LC retention time came out at 757 s.
Turning to `CNC(=O)C1CN(C(=O)Nc2cc(C)ccc2C)CC12CCCC2` (stereo unspecified), the RP-LC retention time turned out to be 715 s.
For the compound `CCN1CCN(c2cc(C)c3cc(NC(=S)NCc4ccc(C)cc4)ccc3n2)CC1`, the RP-LC retention time amounted to 617 s.
`O=C(N[C@H]1C[C@@H]2C[C@H]1N(S(=O)(=O)c1cccs1)C2)c1ccccc1` had an RP-LC retention time of 833 s.
In the case of `CNC(=O)C(=O)Nc1ccc(N(C)C)cc1` it was 486 s.
`CCOc1ccc(OCC)c(NC(=O)C2CCCN(C(=O)c3cc(-c4ccccn4)n[nH]3)C2)c1` (stereo unspecified) registered an RP-LC retention time of 775 s.
As to `O=C(c1cn2cc(Cl)ccc2n1)N1CCCCCC1`, the RP-LC retention time turned out to be 718 s.
`CSc1ccccc1CN1CCC(CNC(=O)c2ccccc2Br)CC1` displayed an RP-LC retention time of 572 s.
To `CCN(CC)C(=O)Cn1nc(-c2nc(-c3ccc(C)cc3)no2)c2ccccc21` belongs 1150 s; to `COc1ccc(S(=O)(=O)N2CCC(OCc3noc(C4CCCO4)n3)CC2)cc1` (stereo unspecified), 863 s.
The compound `Cc1ccc(NC(=O)C2CCN(S(=O)(=O)c3ccc4c(c3)CCCC(=O)N4)CC2)cc1N(C)C` registered an RP-LC retention time of 698 s.
`Cn1nnnc1C1CCCN(C(=O)C2CCCC2)C1` (stereo unspecified) returned an RP-LC retention time of 665 s.
In turn, `CC(=O)n1nc(-c2ccccc2Cl)nc1N` displayed an RP-LC retention time of 729 s.
The compound `CC(C)CCN1CCC(N2CCN(S(=O)(=O)c3ccccc3Cl)CC2)C1=O` (stereo unspecified) returned an RP-LC retention time of 668 s.
Compound `CSc1ccc(NC(=O)COc2ccccc2)nn1` gave an RP-LC retention time of 764 s.
`COC(=O)c1cnc2nc(C)ccc2c1Nc1ccc(OC)c(Cl)c1` gave an RP-LC retention time of 682 s.
To `O=C(NCC(=O)N1CCCc2ccccc21)C1CCN(S(=O)(=O)c2ccc(Cl)cc2)CC1` belongs 914 s.
In turn, `O=C(Nc1ccc2c(c1)OCO2)C1CCN(C(=O)c2ccccc2F)CC1` came in with an RP-LC retention time of 741 s.
For `COc1ccc(Cn2nc3c(S(=O)(=O)N4CCc5ccccc5C4)cccn3c2=O)cc1F`, the RP-LC retention time was determined as 945 s.
The compound `O=C(c1cccc2[nH]cc(CN3CCOCC3)c12)N1CCN(c2ccc(Cl)cc2)CC1` yielded an RP-LC retention time of 753 s.
`COc1nccnc1N1CCC(NC(=O)Cc2ccsc2)C1` (stereo unspecified): the RP-LC retention time was determined as 611 s.
Turning to `Cc1nn(-c2ccccc2)c2c1N(CCCC(=O)N1CCOCC1)C(=O)CS2`, the RP-LC retention time is 694 s.
`Cc1ccccc1-c1noc(Cn2c(=O)n(Cc3ccc(F)cc3)c(=O)c3sccc32)n1` had an RP-LC retention time of 1150 s.
Regarding `O=C(C1CCN(c2cnc3nccnc3c2)CC1)N1CCCCC1`, the RP-LC retention time was 648 s.
Compound `O=C(Cc1cccs1)N1CCN(c2ccc(=O)n(-c3ccc(Cl)cc3)n2)CC1` gave an RP-LC retention time of 804 s.
`COc1ccc(N2CCN(C(=O)c3cc4c(s3)CCN(C(C)=O)C4)CC2)cc1` came in with an RP-LC retention time of 674 s.
For `COc1ccc(CN2C=C(C(=O)OCc3noc(-c4cccc(F)c4)n3)C(C)=NS2(=O)=O)cc1`, the RP-LC retention time was determined as 1050 s.
`CCOC(=O)C1=C(CN2CC(C)CC(C)C2)NC(=O)NC1c1ccc(OC(C)C)cc1` (stereo unspecified) came in with an RP-LC retention time of 708 s.
For the compound `CCOc1ccc(NC(=O)N2CCC(C)(C(=O)NCc3ccc(F)cc3)CC2)cc1`, the RP-LC retention time is 796 s.
To `Cc1ccc(Cn2c(=O)c(N3CCN(C(=O)NC(C)C)CC3)nc3ccccc32)cc1` belongs 981 s.
